Measurements: ChEMBL document CHEMBL1139722, “N',2-diphenylquinoline-4-carbohydrazide based NK3 receptor antagonists” (Bioorg Med Chem Lett, 2006)
Active and inactive are the calls of the source.

How the values were obtained:
[1] = target: T1, Neuromedin-K receptor (Homo sapiens, UniProt P29371); experiment: Displacement of [125I]neurokinin B from cloned human NK3 receptor expressed in CHO cells; format: cell-based
T1 sequence (P29371 whole entry): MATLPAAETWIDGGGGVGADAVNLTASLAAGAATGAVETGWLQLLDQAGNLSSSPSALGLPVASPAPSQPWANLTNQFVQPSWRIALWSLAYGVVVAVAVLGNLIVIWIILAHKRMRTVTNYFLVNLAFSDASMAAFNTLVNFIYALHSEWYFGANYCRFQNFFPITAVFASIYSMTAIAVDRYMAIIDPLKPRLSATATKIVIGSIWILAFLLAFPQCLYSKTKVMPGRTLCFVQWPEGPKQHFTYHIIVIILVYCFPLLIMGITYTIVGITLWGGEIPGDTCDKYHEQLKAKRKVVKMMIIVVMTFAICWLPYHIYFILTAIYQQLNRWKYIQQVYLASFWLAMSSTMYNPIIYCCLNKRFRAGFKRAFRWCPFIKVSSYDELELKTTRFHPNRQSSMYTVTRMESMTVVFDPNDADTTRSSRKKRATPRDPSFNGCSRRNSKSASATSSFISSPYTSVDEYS

[2] = target: T2, PXR (NR1I2) (Homo sapiens, UniProt O75469); experiment: Increase in human PXR activation expressed in CHO cells relative to rifampicin; format: cell-based; settings: CHO cells expressing human PXR, read-out: Activity
T2 sequence (O75469 whole entry): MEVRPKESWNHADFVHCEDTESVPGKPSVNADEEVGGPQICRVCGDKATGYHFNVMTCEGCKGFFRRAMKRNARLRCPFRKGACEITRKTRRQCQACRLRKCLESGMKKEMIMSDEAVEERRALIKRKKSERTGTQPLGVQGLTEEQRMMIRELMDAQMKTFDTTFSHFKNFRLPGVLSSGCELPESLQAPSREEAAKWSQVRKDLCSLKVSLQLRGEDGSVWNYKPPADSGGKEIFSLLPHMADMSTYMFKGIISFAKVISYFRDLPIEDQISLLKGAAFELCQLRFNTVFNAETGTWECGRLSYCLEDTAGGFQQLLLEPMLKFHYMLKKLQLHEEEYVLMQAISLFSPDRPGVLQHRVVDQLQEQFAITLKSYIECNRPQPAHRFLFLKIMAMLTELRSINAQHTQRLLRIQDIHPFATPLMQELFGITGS

[3] = target: T3, Neuromedin-K receptor (Homo sapiens) (UniProt P29371); experiment: Displacement of [125I]neurokinin B from cloned human NK3 receptor expressed in CHO cells at 1 uM; format: cell-based; settings: filed as antagonist
T3 sequence (whole entry): T1 sequence (P29371 whole entry)

[4] = system: Gerbil, jird; experiment: Plasma concentration in gerbil at 75 mg/kg, po; format: ADME, organism-based; set-up: dose 75 mg/kg, route oral; settings: meriones, in vivo
[5] = system: Gerbil, jird; experiment: Plasma concentration in gerbil at 10 mg/kg, po; format: ADME, organism-based; set-up: dose 10 mg/kg, route oral; settings: meriones, in vivo
[6] = Metabolic stability in rat liver microsomes after 15 mins; format: ADME, Microsome; settings: read-out: Stability
[7] = target: Substance-P receptor (Homo sapiens, UniProt P25103); experiment: Inhibition of human NK1 receptor
Sequence of Substance-P receptor (P25103 whole entry): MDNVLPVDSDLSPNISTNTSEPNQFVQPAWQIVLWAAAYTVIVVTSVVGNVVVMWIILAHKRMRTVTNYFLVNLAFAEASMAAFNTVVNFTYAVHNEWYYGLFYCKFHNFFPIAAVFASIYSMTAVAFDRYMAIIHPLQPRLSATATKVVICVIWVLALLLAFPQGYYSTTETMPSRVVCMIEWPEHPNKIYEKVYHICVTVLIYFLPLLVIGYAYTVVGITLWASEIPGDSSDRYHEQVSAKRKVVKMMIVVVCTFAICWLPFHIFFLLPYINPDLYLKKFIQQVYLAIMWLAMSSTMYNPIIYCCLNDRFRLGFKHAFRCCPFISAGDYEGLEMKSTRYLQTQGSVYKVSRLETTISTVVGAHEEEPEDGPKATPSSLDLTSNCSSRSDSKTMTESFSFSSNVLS

[8] = target: T4, Neuromedin-K receptor (Rattus norvegicus, UniProt P16177); experiment: Binding affinity to rat NK3 receptor
T4 sequence (P16177 whole entry): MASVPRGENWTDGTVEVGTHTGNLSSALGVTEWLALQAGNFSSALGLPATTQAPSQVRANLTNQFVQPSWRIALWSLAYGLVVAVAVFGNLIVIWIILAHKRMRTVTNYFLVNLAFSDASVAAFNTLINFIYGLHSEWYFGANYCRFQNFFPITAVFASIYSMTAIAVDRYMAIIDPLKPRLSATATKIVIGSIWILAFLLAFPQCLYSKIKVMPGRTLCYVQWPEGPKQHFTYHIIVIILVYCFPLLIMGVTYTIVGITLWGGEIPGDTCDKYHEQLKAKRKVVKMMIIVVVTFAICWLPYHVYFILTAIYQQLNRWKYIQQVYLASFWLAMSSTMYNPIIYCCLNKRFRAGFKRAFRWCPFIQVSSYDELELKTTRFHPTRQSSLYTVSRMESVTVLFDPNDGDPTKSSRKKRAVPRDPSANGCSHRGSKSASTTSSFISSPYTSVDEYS

[9] = Half life in dog; format: ADME, organism-based, Canis lupus familiaris; settings: in vivo
[10] = target: T3, Neuromedin-K receptor (Homo sapiens); experiment: Activity at human NK3 receptor assessed as stimulation of inositol phosphate generation in CHO cells up to 10 uM; format: functional, cell-based
[11] = Half life in rat; format: ADME, organism-based; settings: in vivo
[12] = system: Hepatocyte; experiment: Induction of CYP3A4 in human hepatocytes at 20 uM relative to rifampicin; format: functional, cell-based
[13] = target: Voltage-gated inwardly rectifying potassium channel KCNH2 (Homo sapiens, UniProt Q12809); experiment: Inhibition of hERG; format: toxicity
Sequence of Voltage-gated inwardly rectifying potassium channel KCNH2 (Q12809 whole entry): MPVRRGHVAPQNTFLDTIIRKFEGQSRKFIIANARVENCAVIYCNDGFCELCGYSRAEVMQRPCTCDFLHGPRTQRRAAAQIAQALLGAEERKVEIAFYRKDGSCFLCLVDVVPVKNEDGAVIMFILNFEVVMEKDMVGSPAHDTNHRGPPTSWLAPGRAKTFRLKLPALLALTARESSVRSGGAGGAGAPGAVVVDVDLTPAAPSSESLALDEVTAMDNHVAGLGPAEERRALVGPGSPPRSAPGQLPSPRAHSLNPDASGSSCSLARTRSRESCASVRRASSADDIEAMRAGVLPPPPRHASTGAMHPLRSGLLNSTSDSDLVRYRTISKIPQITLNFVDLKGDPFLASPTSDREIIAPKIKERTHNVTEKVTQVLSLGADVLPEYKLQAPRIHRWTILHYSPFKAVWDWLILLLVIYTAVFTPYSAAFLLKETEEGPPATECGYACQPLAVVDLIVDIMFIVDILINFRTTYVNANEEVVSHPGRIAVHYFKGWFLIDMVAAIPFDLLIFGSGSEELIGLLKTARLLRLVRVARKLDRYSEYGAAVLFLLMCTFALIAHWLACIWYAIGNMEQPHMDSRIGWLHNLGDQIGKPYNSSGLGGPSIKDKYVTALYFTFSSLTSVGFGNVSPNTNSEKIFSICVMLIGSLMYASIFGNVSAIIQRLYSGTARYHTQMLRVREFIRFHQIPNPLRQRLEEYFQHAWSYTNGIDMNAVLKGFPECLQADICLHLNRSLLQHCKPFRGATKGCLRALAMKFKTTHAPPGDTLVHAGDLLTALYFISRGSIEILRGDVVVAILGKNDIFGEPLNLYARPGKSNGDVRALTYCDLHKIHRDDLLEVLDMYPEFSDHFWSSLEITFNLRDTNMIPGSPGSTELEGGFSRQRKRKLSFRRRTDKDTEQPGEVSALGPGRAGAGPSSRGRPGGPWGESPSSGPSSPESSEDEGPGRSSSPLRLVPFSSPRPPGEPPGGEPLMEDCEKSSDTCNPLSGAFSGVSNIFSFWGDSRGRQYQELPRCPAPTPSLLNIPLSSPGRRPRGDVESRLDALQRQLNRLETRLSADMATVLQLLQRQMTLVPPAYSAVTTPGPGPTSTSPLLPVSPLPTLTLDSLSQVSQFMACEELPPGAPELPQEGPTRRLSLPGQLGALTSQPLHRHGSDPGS

[14] = system: Escherichia coli; experiment: Effect on Escherichia coli mutation in absence of liver microsomal enzymes by Ames assay; format: functional, organism-based
[15] = Oral bioavailability in dog; format: ADME, organism-based, Canis lupus familiaris; settings: in vivo
[16] = system: Gerbil, jird; experiment: Plasma concentration in gerbil at 30 mg/kg, po; format: ADME, organism-based; set-up: dose 30 mg/kg, route oral; settings: meriones, in vivo
[17] = Oral bioavailability in rat; format: ADME, organism-based; settings: in vivo
[18] = target: Cytochrome P450 2D6 (Homo sapiens, UniProt P10635); experiment: Inhibition of CYP2D6 in human liver microsomes; format: ADME, Microsome
Sequence of Cytochrome P450 2D6 (P10635 whole entry): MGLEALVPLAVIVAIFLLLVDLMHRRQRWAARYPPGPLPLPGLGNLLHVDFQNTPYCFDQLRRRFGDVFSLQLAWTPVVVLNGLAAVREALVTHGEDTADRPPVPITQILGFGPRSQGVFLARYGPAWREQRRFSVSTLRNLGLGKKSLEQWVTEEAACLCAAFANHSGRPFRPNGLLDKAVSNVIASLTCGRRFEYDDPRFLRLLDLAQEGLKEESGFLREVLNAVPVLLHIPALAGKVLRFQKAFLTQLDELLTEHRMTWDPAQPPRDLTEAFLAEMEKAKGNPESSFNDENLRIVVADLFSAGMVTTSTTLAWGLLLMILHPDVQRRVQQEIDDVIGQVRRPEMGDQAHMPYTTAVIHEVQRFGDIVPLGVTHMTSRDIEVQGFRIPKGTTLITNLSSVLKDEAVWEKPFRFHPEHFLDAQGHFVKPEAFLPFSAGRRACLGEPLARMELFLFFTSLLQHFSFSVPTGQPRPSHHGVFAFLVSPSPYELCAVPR

[19] = system: Escherichia coli; experiment: Effect on Escherichia coli mutation in presence of liver microsomal enzymes by Ames assay; format: functional, organism-based
[20] = system: Salmonella typhimurium; experiment: Effect on Salmonella Typhimurium mutation in presence of liver microsomal enzymes by Ames assay; format: functional, organism-based; settings: Salmonella enterica subsp. enterica serovar Typhimurium
[21] = system: Salmonella typhimurium; experiment: Effect on Salmonella Typhimurium mutation in absence of liver microsomal enzymes by Ames assay; format: functional, organism-based; settings: Salmonella enterica subsp. enterica serovar Typhimurium
[22] = target: Cytochrome P450 2C9 (Homo sapiens, UniProt P11712); experiment: Inhibition of CYP2C9 in human liver microsomes; format: ADME, Microsome
Sequence of Cytochrome P450 2C9 (P11712 whole entry): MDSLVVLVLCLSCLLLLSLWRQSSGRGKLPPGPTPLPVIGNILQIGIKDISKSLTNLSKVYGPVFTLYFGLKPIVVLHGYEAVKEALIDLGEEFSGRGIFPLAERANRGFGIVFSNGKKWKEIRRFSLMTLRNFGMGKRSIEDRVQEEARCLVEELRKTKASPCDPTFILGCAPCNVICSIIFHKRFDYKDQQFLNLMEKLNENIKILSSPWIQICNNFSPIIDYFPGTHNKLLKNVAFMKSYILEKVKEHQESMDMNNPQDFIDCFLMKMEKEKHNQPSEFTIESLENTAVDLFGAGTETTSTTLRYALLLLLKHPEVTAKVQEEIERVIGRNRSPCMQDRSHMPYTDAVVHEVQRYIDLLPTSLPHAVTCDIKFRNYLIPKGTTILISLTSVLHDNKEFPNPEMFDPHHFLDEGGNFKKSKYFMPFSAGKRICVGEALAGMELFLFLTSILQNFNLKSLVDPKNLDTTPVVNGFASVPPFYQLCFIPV

[23] = target: T3, Neuromedin-K receptor (Homo sapiens); experiment: Activity at human NK3 receptor assessed as inhibition of eledoisin-induced inositol phosphate generation in CHO cells; format: functional, cell-based
[24] = target: Cytochrome P450 3A4 (Homo sapiens, UniProt P08684); experiment: Inhibition of CYP3A4 in human liver microsomes; format: ADME, Microsome
Sequence of Cytochrome P450 3A4 (P08684 whole entry): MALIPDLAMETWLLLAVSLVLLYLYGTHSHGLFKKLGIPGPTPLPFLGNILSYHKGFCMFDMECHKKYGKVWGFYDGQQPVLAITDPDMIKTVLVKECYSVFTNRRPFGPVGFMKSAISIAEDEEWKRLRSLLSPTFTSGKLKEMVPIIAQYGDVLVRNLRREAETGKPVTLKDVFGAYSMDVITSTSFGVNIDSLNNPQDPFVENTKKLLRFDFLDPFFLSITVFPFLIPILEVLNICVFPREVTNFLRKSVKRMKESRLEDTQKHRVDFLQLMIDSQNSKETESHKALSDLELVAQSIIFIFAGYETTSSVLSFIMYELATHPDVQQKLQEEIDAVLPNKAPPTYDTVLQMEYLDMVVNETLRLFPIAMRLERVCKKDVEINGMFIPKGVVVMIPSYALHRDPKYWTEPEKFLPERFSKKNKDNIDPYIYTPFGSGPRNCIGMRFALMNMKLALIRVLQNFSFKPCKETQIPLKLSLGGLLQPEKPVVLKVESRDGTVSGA

[25] = target: T3, Neuromedin-K receptor (Homo sapiens); experiment: Activity at human NK3 receptor assessed as stimulation of calcium mobilization in CHO cells up to 10 uM; format: functional, cell-based
[26] = target: T5, Substance-K receptor (Homo sapiens, UniProt P21452); experiment: Inhibition of human NK2 receptor
T5 sequence (P21452 whole entry): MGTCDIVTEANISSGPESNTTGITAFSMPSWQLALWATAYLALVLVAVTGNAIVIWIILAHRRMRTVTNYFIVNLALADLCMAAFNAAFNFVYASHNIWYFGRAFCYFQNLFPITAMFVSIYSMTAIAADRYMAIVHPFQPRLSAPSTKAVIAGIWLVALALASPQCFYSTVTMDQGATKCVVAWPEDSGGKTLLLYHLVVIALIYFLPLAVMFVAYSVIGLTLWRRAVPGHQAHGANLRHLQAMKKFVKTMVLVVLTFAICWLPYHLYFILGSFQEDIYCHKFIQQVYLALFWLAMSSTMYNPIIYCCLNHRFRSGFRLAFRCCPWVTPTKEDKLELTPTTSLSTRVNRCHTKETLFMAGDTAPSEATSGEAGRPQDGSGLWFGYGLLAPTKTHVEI

## COC(=O)N(NC(=O)c1cc(-c2ccccc2)nc2ccccc12)c1ccccc1
[1]
  IC50: 91 nM (antagonist)
[2]
  Emax: 44%

## COC(=O)N(NC(=O)c1c(OC)c(-c2ccccc2)nc2c(F)cccc12)c1ccccc1
[1]
  IC50: 4.1 nM (antagonist)
[2]
  Emax: 75%

## COc1c(-c2ccccc2)nc2ccccc2c1C(=O)NNc1ccccc1
[1]
  IC50: 32 nM (antagonist)

## COC(=O)N(NC(=O)c1c(C)c(-c2ccccc2)nc2ccccc12)c1ccccc1
[1]
  IC50: 8.4 nM (antagonist)
[2]
  Emax: 56%

## COC(=O)N(NC(=O)c1c(OC)c(-c2cccc(F)c2)nc2ccccc12)c1ccccc1
[1]
  IC50: 22 nM (antagonist)
[2]
  Emax: 69%

## COC(=O)N(NC(=O)c1c(OC)c(-c2ccccc2)nc2c(Br)cccc12)c1ccccc1
[1]
  IC50: 430 nM (antagonist)
[2]
  Emax: 88%

## COC(=O)N(NC(=O)c1c(N)c(-c2ccccc2)nc2ccccc12)c1ccccc1
[1]
  IC50: 10 nM (antagonist)
[2]
  Emax: 64%

## COC(=O)N(NC(=O)c1c(OC)c(-c2ccccc2)nc2cccc(F)c12)c1ccccc1
[1]
  IC50: 11 nM (antagonist)
[2]
  Emax: 55%

## COC(=O)N(NC(=O)c1c(OC)c(-c2ccccc2)nc2c(C#N)cccc12)c1ccccc1
[2]
  Emax: 87%
[3]
  inhibition: 35%

## COC(=O)N(NC(=O)c1c(OC)c(-c2ccccc2F)nc2ccccc12)c1ccccc1
[1]
  IC50: 110 nM (antagonist)

## COC(=O)N(NC(=O)c1c(OC)c(-c2ccccc2)nc2cc(F)ccc12)c1ccccc1
[1]
  IC50: 28 nM (antagonist)
[2]
  Emax: 62%

## CCN(NC(=O)c1c(OC)c(-c2ccccc2)nc2ccccc12)c1ccccc1
[1]
  IC50: 16 nM (antagonist)

## COC(=O)N(NC(=O)c1c(OC)c(-c2ccccc2)nc2ccccc12)c1ccccc1F
[1]
  IC50: 53 nM (antagonist)

## CCC(=O)N(NC(=O)c1c(OC)c(-c2ccccc2)nc2ccccc12)c1ccccc1
[1]
  IC50: 22 nM (antagonist)

## COc1c(-c2ccccc2)nc2ccccc2c1C(=O)NN(C)c1ccccc1
[1]
  IC50: 57 nM (antagonist)

## COC(=O)N(NC(=O)c1c(OC)c(-c2ccccc2)nc2ccccc12)c1ccc(F)cc1
[1]
  IC50: 33 nM (antagonist)

## COC(=O)N(NC(=O)c1c(OC)c(-c2ccc(F)cc2)nc2ccccc12)c1ccccc1
[1]
  IC50: 24 nM (antagonist)
[2]
  Emax: 54%

## CCOC(=O)N(NC(=O)c1c(OC)c(-c2ccccc2)nc2ccccc12)c1ccccc1
[1]
  IC50: 60 nM (antagonist)

## COc1c(-c2ccccc2)nc2ccccc2c1C(=O)NN(C(=O)OCC(C)C)c1ccccc1
[1]
  IC50: 190 nM (antagonist)

## COC(=O)N(NC(=O)c1c(OC)c(-c2ccccc2)nc2ccc(F)cc12)c1ccccc1
[1]
  IC50: 38 nM (antagonist)
[2]
  Emax: 62%

## COC(=O)N(NC(=O)c1c(O)c(-c2ccccc2)nc2ccccc12)c1ccccc1
[1]
  IC50: 39 nM (antagonist)

## CC[C@H](NC(=O)c1c(O)c(-c2ccccc2)nc2ccccc12)c1ccccc1 [TALNETANT]
[2]
  Emax: 62%
[4]
  concentration: 3800 nM

## COc1c(-c2ccccc2)nc2ccccc2c1C(=O)NN(c1ccccc1)c1ccccc1
[5]
  concentration: 40 nM
[6]
  remaining at 0.25 h: 65%
[1]
  IC50: 0.85 nM (antagonist)
[2]
  Emax: 68%

## COC(=O)N(NC(=O)c1c(OC)c(-c2ccccc2)nc2ccccc12)c1ccccc1
[7]
  IC50: > 1000 nM
[8]
  IC50: 66 nM (antagonist)
[9]
  half-life: 3 h
[10]
  Activity: inactive
[11]
  half-life: 4.6 h
[12]
  Activity: Active
[13]
  Ki: > 8000 nM
[6]
  remaining at 0.25 h: 21%
[14]
  Activity: inactive
[15]
  bioavailability: 36%
[16]
  concentration: 950 nM
[17]
  bioavailability: 43%
[18]
  IC50: > 30000 nM
[19]
  Activity: inactive
[20]
  Activity: inactive
[21]
  Activity: inactive
[22]
  IC50: > 30000 nM
[23]
  Activity: Dose-dependent effect
[24]
  IC50: 12000 nM
[25]
  Activity: inactive
[26]
  IC50: > 1000 nM
[2]
  Emax: 49%

## COC(=O)N(NC(=O)c1c(OC)c(-c2ccccc2)nc2c(C(F)(F)F)cccc12)c1ccccc1
[2]
  Emax: 87%
[3]
  inhibition: 27%

## COC(=O)N(NC(=O)c1c(OC)c(-c2ccccc2)nc2ccccc12)c1cccc(F)c1
[1]
  IC50: 7.4 nM (antagonist)
[2]
  Emax: 54%

## COc1c(-c2ccccc2)nc2ccccc2c1C(=O)NN(C(C)=O)c1ccccc1
[1]
  IC50: 210 nM (antagonist)
